Experimental data reported in article PMC8408311 (Diabetologia, 2021).
Where two headings read alike, the source gives them in different places.

Assays:
[1] = Danish registry cohort, hypoglycaemic episodes leading to hospitalisation; type: in vivo, human
[2] = system: patients with type 2 diabetes at CV risk; experiment: PIONEER 6, treatment discontinuation; parameters: species or system human; conditions: in vivo
Arrb2-/- beta cells = experiment: Incretin responses in Arrb2-/- beta cells; type: cell-based, mouse
[3] = system: mouse pancreatic beta cells; experiment: PKA activation; type: cell-based; conditions: only effective from
[4] = Low dose gliclazide and sitagliptin crossover study, mixed meal test and CGM; type: in vivo, human; conditions: 2-hour MMT after 14 days
[5] = 3-year prospective observational study of quadruple oral therapy in T2DM; type: in vivo, human; conditions: empagliflozin 25 mg/day, dapagliflozin 10 mg/day
[6] = single dose 50 mg
[7] = Swedish registry cohorts, causal random forest, change after 6 months versus SU; type: in vivo, human; conditions: after 6 months treatment
C57BL/6J mice = experiment: Pparg splicing in epididymal adipose tissue of LPS-injected mice; type: in vivo, mouse; conditions: inflamed adipose tissue, n=6
[8] = SUSTAIN 10 post hoc analysis by baseline SGLT-2i; type: in vivo, human
[9] = Liraglutide crossover trial, Holter monitoring and echocardiography; type: in vivo, human; conditions: 12 weeks
[10] = CADODIAME study, subclinical diabetic macular oedema; type: in vivo, human; conditions: 1000 mg twice per day, 1 year; SD 14
[11] = EMPA-REG OUTCOME, uric acid and gout analysis; type: in vivo, human
C57BL/6 mice = experiment: High-fat diet-fed mice, 8 weeks of treatment; type: in vivo, mouse; conditions: HFD mice, 10mg/kg for 8 weeks
[12] = system: human hTERT-immortalized adipose tissue-derived MSCs; experiment: PPARG splicing in adipose tissue-derived MSCs treated with recombinant cytokines; type: cell-based
HFD C57BL/6J mice = experiment: obesity-induced cardiac dysfunction, high-fat diet mice; type: in vivo; conditions: 10 mg/kg/day intragastric for 8 weeks
male Wistar rats = experiment: 30-min filament middle cerebral artery occlusion; type: in vivo, rat; conditions: 48 h after MCAO; healthy 18 points, maximal deficit 3 points
[13] = EXPECT trial, pregnant women with type 1 diabetes; type: in vivo, human; conditions: degludec once daily or detemir 1-2 times daily, both with insulin aspart
[14] = VERTIS CV, analysis in older patients; type: in vivo, human
[15] = Insulin icodec titration trial, CGM hypoglycaemia duration, insulin-naive T2D; type: in vivo, human
[16] = system: insulin-naive patients with type 2 diabetes; experiment: Icodec phase 2 titration trial, CGM post hoc; type: in vivo, human; conditions: titration B, weeks 15&16
[17] = type: in vivo, human
[18] = Tirzepatide single-dose PK in hepatic impairment; type: in vivo, human
[19] = SURPASS-2, add-on to metformin in type 2 diabetes; type: in vivo, human; conditions: TZP range over 5-15 mg; SEMA 1 mg
[20] = SURPASS-5, add-on to insulin glargine in type 2 diabetes; conditions: range over 5, 10, 15 mg
[21] = system: people with T2D inadequately controlled with diet and exercise; experiment: SURPASS-1 trial; type: in vivo, human; conditions: across TZP doses

## human insulin
[1]; combination human insulin
  HR for hypoglycaemic episodes leading to hospitalisation: 1.84
[1]; intermediate-acting human insulin
  HR for hypoglycaemic episodes leading to hospitalisation: 1.38

## CC[C@H](C)[C@H](NC(=O)[C@H](Cc1ccccc1)NC(=O)[C@H](CCC(=O)O)NC(=O)[C@H](CCCCNC(=O)COCCOCCNC(=O)COCCOCCNC(=O)CC[C@H](NC(=O)CCCCCCCCCCCCCCCCC(=O)O)C(=O)O)NC(=O)[C@H](C)NC(=O)[C@H](C)NC(=O)[C@H](CCC(N)=O)NC(=O)CNC(=O)[C@H](CCC(=O)O)NC(=O)[C@H](CC(C)C)NC(=O)[C@H](Cc1ccc(O)cc1)NC(=O)[C@H](CO)NC(=O)[C@H](CO)NC(=O)[C@@H](NC(=O)[C@H](CC(=O)O)NC(=O)[C@H](CO)NC(=O)[C@@H](NC(=O)[C@H](Cc1ccccc1)NC(=O)[C@@H](NC(=O)CNC(=O)[C@H](CCC(=O)O)NC(=O)C(C)(C)NC(=O)[C@@H](N)Cc1cnc[nH]1)[C@@H](C)O)[C@@H](C)O)C(C)C)C(=O)N[C@@H](C)C(=O)N[C@@H](Cc1c[nH]c2ccccc12)C(=O)N[C@@H](CC(C)C)C(=O)N[C@H](C(=O)N[C@@H](CCCNC(=N)N)C(=O)NCC(=O)N[C@@H](CCCNC(=N)N)C(=O)NCC(=O)O)C(C)C [oral semaglutide, semaglutide]
[2]
  patients who stopped at least once due to an AE: 27%

## glucose-dependent insulinotropic polypeptide (YAEGTFISDYSIAMDKIHQQDFVNWLLAQKGKKNDWKHNITQ; Gastric inhibitory polypeptide; UniProt P09681 52-93, looked up) [GIP]
Arrb2-/- beta cells
  Reduction of insulin secretion in Arrb2-/- beta cells: ~ 50%
[3]
  Lowest effective concentration on PKA activation and insulin secretion: ≥ 1 nM

## N[C@@H](CC(=O)N1CCn2c(nnc2C(F)(F)F)C1)Cc1cc(F)c(F)cc1F [DPP4, sitagliptin]
[4]
  Beta cell glucose sensitivity: 75.9 (55.7 - 96.0) pmol min^-1 m^-2mM^-1

## CCOc1ccc(Cc2cc([C@@H]3O[C@H](CO)[C@@H](O)[C@H](O)[C@H]3O)ccc2Cl)cc1 [dapagliflozin]
UACR >3500 mg/g, 95%CI 3.0, 24.5
  Absolute risk reduction for the primary outcome: 13.8%
UACR >1000 to ≤3500 mg/g, 95%CI 3.6, 10.1
  Absolute risk reduction for the primary outcome: 6.9%
[5]
  Change in body weight at 3 years: -1.0 ± 3.3 kg
  Change in fasting plasma glucose at 3 years: -47.4 ± 61.7 mg/dL
[6]
  adverse events: no adverse events
[7]
  Average treatment effect on change in HbA1c compared to SU: -1.10 [-1.92, -0.27] mmol/mol

## lipopolysaccharides [LPS]
C57BL/6J mice
  Increase of PpargΔ5/cPparg ratio: 3.5 fold

## CCCCCCCCCCCCCCCC(=O)N[C@@H](CCC(=O)NCCCC[C@H](NC(=O)[C@H](C)NC(=O)[C@H](C)NC(=O)[C@H](CCC(N)=O)NC(=O)CNC(=O)[C@H](CCC(=O)O)NC(=O)[C@H](CC(C)C)NC(=O)[C@H](Cc1ccc(O)cc1)NC(=O)[C@H](CO)NC(=O)[C@H](CO)NC(=O)[C@@H](NC(=O)[C@H](CC(=O)O)NC(=O)[C@H](CO)NC(=O)[C@@H](NC(=O)[C@H](Cc1ccccc1)NC(=O)[C@@H](NC(=O)CNC(=O)[C@H](CCC(=O)O)NC(=O)[C@H](C)NC(=O)[C@@H](N)Cc1cnc[nH]1)[C@@H](C)O)[C@@H](C)O)C(C)C)C(=O)N[C@@H](CCC(=O)O)C(=O)N[C@@H](Cc1ccccc1)C(=O)N[C@H](C(=O)N[C@@H](C)C(=O)N[C@@H](Cc1c[nH]c2ccccc12)C(=O)N[C@@H](CC(C)C)C(=O)N[C@H](C(=O)N[C@@H](CCCNC(=N)N)C(=O)NCC(=O)N[C@@H](CCCNC(=N)N)C(=O)NCC(=O)O)C(C)C)[C@@H](C)CC)C(=O)O [liraglutide]
[8]; with SGLT-2i
  Premature treatment discontinuations due to AEs: 7.2%
[8]; without SGLT-2i
  Premature treatment discontinuations due to AEs: 6.4%
[9]
  Impairment of diastolic filling (e'): 10%

## O=S(=O)(O)c1cc(O)ccc1O [CaD, Calcium dobesilate]
[10]
  Mean decrease of retinal thickness: 2.5 μm

## OC[C@H]1O[C@@H](c2ccc(Cl)c(Cc3ccc(O[C@H]4CCOC4)cc3)c2)[C@H](O)[C@@H](O)[C@@H]1O [empagliflozin, Empagliflozin]
[11]; pooled empagliflozin
  Hazard ratio (95% CI) for gout flare or initiation of a drug for gout vs placebo: 0.67 (0.53, 0.85)
[11]; pooled empagliflozin, patients not on UA lowering medication at baseline
  Patients with a gout flare or initiation of a drug for gout: 3.6%
[11]; week 52, baseline UA levels ≥6 mg/dL
  Serum uric acid, adjusted mean (95% CI) treatment difference vs placebo: −0.46 (−0.55, −0.38) mg/dL
[11]; week 52, pooled 10 and 25 mg/day
  Serum uric acid, adjusted mean (95% CI) treatment difference vs placebo: −0.37 (−0.42, −0.31) mg/dL
C57BL/6 mice
  Body weight: 40 ± 0.9 g
  Fat mass: 8.5 ± 1.5 g
[5]
  Change in body weight at 3 years: -4.5 ± 2.5 kg
  Change in fasting plasma glucose at 3 years: -59.3 ± 53.3 mg/dL

## TNFα
[12]
  Increase of PpargΔ5/cPparg ratio: 2.5 fold

## OC[C@H]1O[C@@H](c2ccc(Cl)c(Cc3ccc(O[C@H]4CCOC4)cc3)c2)[C@H](O)[C@@H](O)[C@@H]1O [EMPA, empagliflozin]
HFD C57BL/6J mice
  body weight and whole-body fat: Lower
  myocardial damage: reduced
Male Wistar rats
  Garcia score (neurological deficit): 12.0 (9.5; 14.0) points

## insulin detemir
[13]
  Estimated mean HbA1c prior to delivery: 6.34%

## CCOc1ccc(Cc2cc([C@]34OC[C@](CO)(O3)[C@@H](O)[C@H](O)[C@H]4O)ccc2Cl)cc1 [ertugliflozin]
[14]; patients ≥65 yrs
  Incidence of hypovolemia AEs: 5.3%
[14]; patients ≥75 yrs
  Incidence of hypovolemia AEs: 6.9%

## Insulin icodec
[15]; titration A (4.4-7.2 mmol/L; ±21 U/week), CGM <3.9 mmol/L for at least 15 min
  Overall hypoglycaemic episode duration, median (IQR): 35.0 (20.0, 70.0) min
[15]; titration B (4.4-7.2 mmol/L ±28 U/week)
  Overall hypoglycaemic episode duration, median (IQR): 35.0 (20.0, 70.0) min
[15]; titration C (3.9-6.0 mmol/L ±28 U/week)
  Overall hypoglycaemic episode duration, median (IQR): 39.0 (24.0, 70.0) min
[16]
  patients with >70% TIR and TBR<3.9 mmol/L <4%: 80.0%
[17]; with 100% loading dose
  Overall hypoglycaemic episode duration, median (IQR): 40.0 (20.0, 75.0) min
[17]; without loading dose
  Overall hypoglycaemic episode duration, median (IQR): 40.0 (25.0, 80.0) min

## CC[C@H](C)[C@H](NC(=O)[C@H](CC(C)C)NC(=O)[C@H](Cc1c[nH]c2ccccc12)NC(=O)[C@H](CCC(N)=O)NC(=O)[C@@H](NC(=O)[C@H](Cc1ccccc1)NC(=O)[C@H](C)NC(=O)[C@H](CCCCNC(=O)COCCOCCNC(=O)COCCOCCNC(=O)CC[C@H](NC(=O)CCCCCCCCCCCCCCCCCCC(=O)O)C(=O)O)NC(=O)[C@H](CCC(N)=O)NC(=O)[C@H](C)NC(=O)[C@@H](NC(=O)[C@H](CCCCN)NC(=O)[C@H](CC(=O)O)NC(=O)[C@H](CC(C)C)NC(=O)C(C)(C)NC(=O)[C@@H](NC(=O)[C@H](CO)NC(=O)[C@H](Cc1ccc(O)cc1)NC(=O)[C@H](CC(=O)O)NC(=O)[C@H](CO)NC(=O)[C@@H](NC(=O)[C@H](Cc1ccccc1)NC(=O)[C@@H](NC(=O)CNC(=O)[C@H](CCC(=O)O)NC(=O)C(C)(C)NC(=O)[C@@H](N)Cc1ccc(O)cc1)[C@@H](C)O)[C@@H](C)O)[C@@H](C)CC)[C@@H](C)CC)C(C)C)C(=O)N[C@@H](C)C(=O)NCC(=O)NCC(=O)N1CCC[C@H]1C(=O)N[C@@H](CO)C(=O)N[C@@H](CO)C(=O)NCC(=O)N[C@@H](C)C(=O)N1CCC[C@H]1C(=O)N1CCC[C@H]1C(=O)N1CCC[C@H]1C(=O)N[C@@H](CO)C(N)=O [Tirzepatide]
[18]; across all groups
  median tmax: no change
[18]; control and hepatic impairment groups
  geometric least squares mean t1/2: similar

## CC[C@H](C)[C@H](NC(=O)[C@H](CC(C)C)NC(=O)[C@H](Cc1c[nH]c2ccccc12)NC(=O)[C@H](CCC(N)=O)NC(=O)[C@@H](NC(=O)[C@H](Cc1ccccc1)NC(=O)[C@H](C)NC(=O)[C@H](CCCCNC(=O)COCCOCCNC(=O)COCCOCCNC(=O)CC[C@H](NC(=O)CCCCCCCCCCCCCCCCCCC(=O)O)C(=O)O)NC(=O)[C@H](CCC(N)=O)NC(=O)[C@H](C)NC(=O)[C@@H](NC(=O)[C@H](CCCCN)NC(=O)[C@H](CC(=O)O)NC(=O)[C@H](CC(C)C)NC(=O)C(C)(C)NC(=O)[C@@H](NC(=O)[C@H](CO)NC(=O)[C@H](Cc1ccc(O)cc1)NC(=O)[C@H](CC(=O)O)NC(=O)[C@H](CO)NC(=O)[C@@H](NC(=O)[C@H](Cc1ccccc1)NC(=O)[C@@H](NC(=O)CNC(=O)[C@H](CCC(=O)O)NC(=O)C(C)(C)NC(=O)[C@@H](N)Cc1ccc(O)cc1)[C@@H](C)O)[C@@H](C)O)[C@@H](C)CC)[C@@H](C)CC)C(C)C)C(=O)N[C@@H](C)C(=O)NCC(=O)NCC(=O)N1CCC[C@H]1C(=O)N[C@@H](CO)C(=O)N[C@@H](CO)C(=O)NCC(=O)N[C@@H](C)C(=O)N1CCC[C@H]1C(=O)N1CCC[C@H]1C(=O)N1CCC[C@H]1C(=O)N[C@@H](CO)C(N)=O [TZP, Tirzepatide]
[19]
  Diarrhoea: 13-16%
  Nausea: 17-22%
  Vomiting: 6-10%
[20]
  Diarrhoea, patients reporting: 12-21%
  Incidence of hypoglycaemia (blood glucose <3.0 mmol/L) or severe hypoglycaemia: 14-19%
  Nausea, patients reporting: 13-18%
  Vomiting, patients reporting: 7-13%
[21]
  Diarrhoea: 12-14%
  Nausea: 12-18%
